From patent USRE49873E1, “APP specific bace inhibitors (ASBIs) and uses thereof” (BUCK INSTITUTE FOR RESEARCH ON AGING, priority 2012, dated 2024)

Experiments:
[1] = in vivo; parameters: species or system mice; conditions: mouse; for brain Cmax of galangin: sc, 10 mg/kg
Method: The brain penetrance of galangin and progalangin were assessed in a standard PK comprising subcutaneous (Sub-Q) injection of 5 adult non-transgenic mice with 50 ul of a 5 mg/ml stock of compound in dimethylsulfoxide (DMSO) or a dose of 10 mg/kg for a 25 g mouse. Injected mice were anesthetized with ketamine/xylazine at 1, 2, 4, 6, and 8 hours and blood collected by cardiac puncture. The mice were then perfused with saline and brain tissue dissected and snap frozen on dry ice. Blood was centrifuged at 3000 rpm for 10 minutes and the plasma supernatant collected. Both plasma and the right hemibrain were sent to Integrated Analytical Solutions (IAS, Berkeley, Calif.) with a reference sample of compound for compound level analysis in tissue and plasma. The compound levels were determined using a LC-MS/MS approach.
CNS exposure studies were performed and consisted of a time-course design to collect heparinized plasma and brains. Following sc administration of the galangin or progalangin (compound-2) at 10 mg/kg, plasma and brain levels of the compounds were determined by quantitative LC/MS/MS methodology. Plasma samples were precipitated with acetonitrile:methanol (1:1) cocktail containing an internal standard. The brain samples were homogenized directly in ethylacetate or extracted from 5M guanidine homogenates with the liquid-liquid method. The resulting supernatant was evaporated to dryness and subjected to the LC/MS/MS analysis. For each compound 5 mice were used for the analysis. The brain-to-plasma ratios and plasma/brain Cmax levels were then determined (see, e.g., FIG. 8).

[2] = test system: Aβ1-40 and Aβ1-42 levels in hippocampal/entorhinal cortical tissue; assay: Pilot efficacy testing in PDAPP (J20) AD model mice, Aβ ELISA; assay type: in vivo; conditions: 40 mpk sc daily for 14 days, hippocampus and cortex, 40 mg/kg
Method: Galangin and progalangin (PG-1) were dissolved in 10% solutol/15% DMSO/75% polyethylene glycol (PEG). Stock solutions were prepared at 10 mg/ml for each compound and 100 ul was injected subcutaneously daily for 14 days at a dose of 40 mkd. There were 5 PDAPP AD model J20 mice in both the galangin and progalangin groups, and 9 vehicle-only treated J20 controls. Mice were anesthetized, blood collected for plasma, and brain tissue collected as described above 2 hours after injection on the last day of treatment. The right hemibrain was further microdissected to isolate hippocampus and entorhinal cortex and this combined tissue was used for biochemical analysis. The remaining tissue and plasma was sent to IAS for compound level analysis.
Aβ1-42 and Aβ1-40 levels were determined using the hippocampal/entorhinal cortical tissue. Briefly, frozen tissue samples were weighed, and a 20% w/v sonicate prepared in 5M guandine-HCl/50 mM Tris, pH8. Sonication was performed with sample tubes in ice water, 4×5 seconds at 60 Hz, then 3×5 seconds at 80 Hz. Samples were then rotated at room temperature for 3 hours and frozen at −20° C. until assay. Invitrogen ELISA kits were used for Aβ1-40 and Aβ1-42 according to the manufacturer's instructions.

[3] = test system: APP-Gal4 transactivation in HEK293T cells; assay: APP-Gal4/Mint3/TAZ transactivation assay; assay type: cell-based; conditions: Mint3 and TAZ present; galangin at 10 μM
From the text: (§1) FIGS. 7A and 7B illustrate inhibition of APP-Gal4 and APLP2-Gal4 transactivation by galangin. […] This transactivation was inhibited by Galangin and BACE inhibitor IV. FIG. 7B: Potent transactivation of transcription was also achieved with APLP2 fused to the Gal4 DNA binding domain when both Mint3 and TAZ were present. This transactivation was inhibited by Galangin and BACE inhibitor IV. […] The normalized luciferase activity is expressed as a percentage of the DMSO treated control (FIGS. 7A, 7B). Error bars indicate SEM. (*, p<0.05; **, p<0.01; ***, p<0.001; n=3, student t test).
(§2) This assay system is described by Orcholski et al. (2011) J. Alzheimers Dis., 23(4):689-699. Transactivation is achieved upon transfection with Mint3 and Taz. The ASBI was expected to inhibit only the transactivation of APP-Gal4, not that of APLP2-Gal4. For these experiments cells were co-transfected with a Gal4-luciferase reporter plasmid (to measure transactivation), a beta-galactosidase plasmid (to normalize for transfection efficiency), and the test plasmids identified. The normalized luciferase activity was expressed as fold induction over transcription by APP-Gal4 alone (FIG. 7A), or as fold induction over APLP2-Gal4 alone (FIG. 7B).
(§3) HEK293T cells were co-transfected with five plasmids: (1) pG5E1B-luc, 0.3 μg; (2) pCMV-LacZ, 0.1 μg; (3) pMst-APP (APP-Gal4) or pcDNA3.1-APLP2-Gal4, 0.3 μg; (4) pCMV5-Mint3, 1.0 μg; (5) pEF-N-FLAG-TAZ, 1.0 μg. Cells were harvested 48 hr after transfection in 0.2 ml per well Cell Culture Lysis Buffer (Promega), and their luciferase and β-galactosidase activities were determined with the Promega luciferase assay kit and the Promega β-galactosidase assay kit, respectively. The luciferase activity was standardized by the β-galactosidase activity to control for transfection efficiency and general effects on transcription. Transfections were performed at 80-90% cofluency in six-well plates using Lipofectamine 2000 (Invitrogen).

[4] = test system: APLP2-Gal4 transactivation in HEK293T cells; assay: APLP2-Gal4/Mint3/TAZ transactivation assay; assay type: cell-based; conditions: Mint3 and TAZ present; galangin at 10 μM
From the text: as §1, §2, §3

Row | Molecule | galangin levels after PG-1 injection versus galangin itself [1] | plasma levels versus brain tissue levels [1] | brain Cmax of galangin [1] | Aβ1-40 (Aβ40) levels in brain [2] | Aβ1-42 (Aβ42) levels in brain [2] | Aβ1-40 (Aβ40) levels in brain ([2]; listed as pro-galangin I) | Aβ1-42 (Aβ42) levels in brain ([2]; listed as pro-galangin I) | Aβ1-40 (Aβ40) levels in brain ([2]; listed as progalangin) | Aβ1-42 (Aβ42) levels in brain ([2]; listed as progalangin) | brain penetration [1] | APP-Gal4 transactivation [3] | APLP2-Gal4 transactivation [4]
1 | CC(=O)Oc1cc(OC(C)=O)c2c(=O)c(O)c(-c3ccccc3)oc2c1 [PG-1, 5,7-Diacetoxy-3-hydroxyflavone] | much higher | Plasma levels were greater than brain tissue levels | ~100 ng/g | more effective in vivo than galangin | more effective in vivo than galangin | slightly lowered | slightly lowered | reduction | reduction | – | – | –
2 | C[C@@H]1O[C@@H](OC[C@H]2O[C@@H](Oc3c(-c4ccc(O)c(O)c4)oc4cc(O)cc(O)c4c3=O)[C@H](O)[C@@H](O)[C@@H]2O)[C@H](O)[C@H](O)[C@H]1O [Rutin] | – | – | no rutin was detectable in the brain | – | – | – | – | – | – | does not cross the blood-brain barrier | – | –
3 | BACE inhibitor IV [reference compound] | – | – | – | – | – | – | – | – | – | – | inhibited | inhibited
